Experimental data taken from ChEMBL document CHEMBL1201862, “PubChem BioAssay data set” (2004).
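Dose response: 5 concentrations. Exposure: 48 h. Format: 96-well plates. Endpoint: linear interpolation; highest concentration if not reached. GI50 is the concentration that inhibits growth by half.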 Activity calls are given as the source filed them. No stated cut-off is given here; in the data, active = GI50 up to about 1.1 µM and inactive = higher.

What was measured:
Assay in all cases: NCI tumour cell line growth inhibition, 48 h
[1] = tested on: UACC-257
[2] = tested on: HOP-62
[3] = tested on: PC-3
[4] = tested on: SK-OV-3
[5] = tested on: SN12C
[6] = tested on: SF-295
[7] = tested on: SR
[8] = tested on: SK-MEL-28
[9] = tested on: Malme-3M
[10] = tested on: OVCAR-5
[11] = tested on: OVCAR-3
[12] = tested on: UO-31
[13] = tested on: MDA-N
[14] = tested on: SW-620
[15] = tested on: HOP-92
[16] = tested on: RPMI-8226
[17] = tested on: NCI-H522
[18] = tested on: KM12
[19] = tested on: SK-MEL-5
[20] = tested on: K562

Measured: GI50

N=C1CCCC1C(=S)SCCC(N)=O (stereo not given)
inactive: [1] > 100 µM | [2] > 100 µM | [3] > 100 µM | [4] > 100 µM | [5] > 100 µM | [6] > 100 µM | [7] 19.3 µM | [8] > 100 µM | [9] > 100 µM | [10] > 100 µM | [11] > 100 µM | [12] > 100 µM | [13] > 100 µM | [14] > 100 µM | [15] > 100 µM | [16] > 100 µM | [17] > 100 µM | [18] > 100 µM | [19] > 100 µM

C=CCn1c(=O)c(C(=O)Nc2nc(C34CC5CC(CC(C5)C3)C4)cs2)c(O)c2ccccc21
inactive: [1] 10.2 µM | [2] 30.6 µM | [3] 43.4 µM | [5] 45.5 µM | [6] 17.9 µM | [7] 37.1 µM | [8] 63 µM | [9] 26 µM | [10] 91.6 µM | [11] 49.3 µM | [12] 31.8 µM | [13] 48.6 µM | [14] 23.5 µM | [15] 28.4 µM | [20] 15.1 µM | [16] 20.1 µM | [17] 44 µM | [18] 30.1 µM | [19] 34.4 µM

C/C=C(\C)C(=O)OC1C2C(C)C(=O)OC2C(O)C(C)C2C=CC(=O)C21C (stereo not given)
inactive: [1] 12.7 µM | [2] 18.2 µM | [3] 16.8 µM | [4] 16.6 µM | [5] 14.9 µM | [6] 14.7 µM | [7] 2.18 µM | [8] 14.1 µM | [9] 12.6 µM | [10] 19.5 µM | [11] 10.8 µM | [12] 14.8 µM | [13] 8.81 µM | [14] 14 µM | [15] 13.4 µM | [20] 2.96 µM | [16] 4.61 µM | [17] 2.69 µM | [18] 11.1 µM | [19] 7.46 µM

C=CC(C)(O)/C=C/C=C(\C)C(CC1OC1(C)C)OC(=O)/C(C)=C\C (stereo not given)
inactive: [1] > 100 µM | [2] > 100 µM | [3] > 100 µM | [4] > 100 µM | [5] > 100 µM | [6] > 100 µM | [7] > 100 µM | [8] > 100 µM | [9] > 100 µM | [10] > 100 µM | [11] > 100 µM | [12] > 100 µM | [13] > 100 µM | [14] > 100 µM | [15] > 100 µM | [20] > 100 µM | [16] > 100 µM | [17] > 100 µM | [18] > 100 µM | [19] > 100 µM

COc1cc(-c2[o+]c3cc(O)cc(O)c3cc2O)cc(O)c1O
inactive: [1] > 100 µM | [2] > 100 µM | [3] > 100 µM | [4] > 100 µM | [5] > 100 µM | [6] > 100 µM | [7] 96.6 µM | [8] > 100 µM | [9] > 100 µM | [10] > 100 µM | [11] > 100 µM | [12] > 100 µM | [13] 34.8 µM | [14] 30.6 µM | [15] > 100 µM | [20] > 100 µM | [16] > 100 µM | [17] 66.5 µM | [18] > 100 µM | [19] > 100 µM

CCCCC(=O)OC[n+]1ccc(-c2c(COC(=O)NC(C)C)c(COC(=O)NC(C)C)c3n2CCC3)cc1
inactive: [1] > 100 µM | [2] > 59.6 µM | [3] > 84.5 µM | [4] > 100 µM | [5] 40.3 µM | [6] > 76.2 µM | [7] 10 µM | [8] > 100 µM | [9] > 100 µM | [10] > 100 µM | [11] > 100 µM | [12] > 100 µM | [13] > 100 µM | [14] > 76.2 µM | [15] > 84.1 µM | [20] > 90.8 µM | [16] > 68.7 µM | [17] 30.5 µM | [18] > 100 µM | [19] > 100 µM

COc1cc2nc(-c3ccccc3)cc(O)c2cc1OC
inactive: [1] 63.7 µM | [2] 19 µM | [3] 23 µM | [4] 35.6 µM | [5] 31.4 µM | [6] 18.5 µM | [7] 6 µM | [8] 36.2 µM | [9] > 50.6 µM | [10] 41.1 µM | [11] 4.44 µM | [12] 52 µM | [13] 2.18 µM | [14] 10.8 µM | [15] 33.7 µM | [20] 4.76 µM | [16] 27 µM | [17] 5.83 µM | [18] 3.81 µM | [19] 5.78 µM

Cc1cc(C)c2nc3c(c(C(O)C4CCCCN4)c2c1)CC/C3=C\c1ccc(Cl)cc1 (stereo not given)
inactive: [1] 32.8 µM | [2] 75.9 µM | [3] 54.1 µM | [4] 74.3 µM | [5] 38.1 µM | [6] 73.1 µM | [7] 34.2 µM | [8] > 100 µM | [9] > 100 µM | [10] 41.1 µM | [11] 42.1 µM | [13] 50.4 µM | [14] 55.3 µM | [15] > 100 µM | [20] 38 µM | [16] 40.7 µM | [17] 34 µM | [18] 64.3 µM | [19] 28.9 µM

COc1ccc(N2C(=O)c3cccnc3S2(=O)=O)cc1
inactive: [1] > 100 µM | [2] > 100 µM | [3] > 100 µM | [4] > 100 µM | [5] > 100 µM | [6] > 100 µM | [7] > 100 µM | [8] > 100 µM | [9] > 100 µM | [10] > 100 µM | [11] > 100 µM | [12] > 100 µM | [13] > 100 µM | [14] > 100 µM | [15] > 100 µM | [20] > 100 µM | [16] > 100 µM | [17] > 100 µM | [18] > 100 µM

CC(C)OC(=O)C1=C2c3ncccc3C(=O)N2[C@@H](Cl)[C@@H](Cl)[C@@H]1Cl
inactive: [1] > 100 µM | [2] > 100 µM | [3] > 100 µM | [5] 21.2 µM | [6] > 100 µM | [7] 49.5 µM | [8] > 100 µM | [9] > 100 µM | [10] > 100 µM | [11] > 100 µM | [12] > 100 µM | [13] 74.1 µM | [14] 34.9 µM | [15] > 100 µM | [20] 33.4 µM | [16] 29.8 µM | [17] 35.6 µM | [18] > 100 µM | [19] > 100 µM

O=C(O)c1ccc([N+](=O)[O-])c2cc3cnccc3nc12
inactive: [2] 31.6 µM | [3] 15.5 µM | [4] 56.9 µM | [5] 16.3 µM | [6] 43.5 µM | [7] 43.2 µM | [8] 18.6 µM | [9] 15.2 µM | [10] 33.7 µM | [11] 21.2 µM | [12] 23.3 µM | [13] 20.6 µM | [15] 30.1 µM | [20] 5.78 µM | [16] 39.7 µM | [17] 13.4 µM | [18] 22.4 µM | [19] 19.1 µM

COc1ccccc1C1c2cc3c(cc2OC(N2CCCC2)C1C)OCO3 (stereo not given)
inactive: [1] 20.4 µM | [2] 15.1 µM | [3] 16 µM | [5] 17.1 µM | [6] 16.7 µM | [7] 6.21 µM | [8] 20.4 µM | [9] 18.4 µM | [10] 19.2 µM | [11] 15.7 µM | [12] 10.4 µM | [13] 11.1 µM | [14] 18 µM | [15] 3.08 µM | [20] 15.1 µM | [16] 14.8 µM | [17] 9.95 µM | [18] 19.3 µM | [19] 14.5 µM

COc1ccc2cc(NC(=O)Nn3cnnc3)ccc2c1
inactive: [1] > 100 µM | [2] > 100 µM | [3] > 100 µM | [4] > 100 µM | [6] > 100 µM | [7] > 100 µM | [8] > 100 µM | [9] > 100 µM | [10] > 100 µM | [11] > 100 µM | [12] > 100 µM | [13] > 100 µM | [14] > 100 µM | [15] > 100 µM | [20] > 100 µM | [16] > 100 µM | [17] > 100 µM | [18] 92.5 µM | [19] > 100 µM

O=C(/C=C/c1ccccc1Br)c1ccccc1
inactive: [1] 9.68 µM | [2] 13.4 µM | [3] 11.4 µM | [4] 16.9 µM | [5] 9.84 µM | [6] 11.3 µM | [7] 2.18 µM | [8] 3.69 µM | [10] 16.1 µM | [11] 10.4 µM | [12] 5.55 µM | [13] 6.71 µM | [14] 1.58 µM | [15] 16.7 µM | [20] 1.94 µM | [16] 3.01 µM | [17] 2.65 µM | [18] 2.14 µM | [19] 9.31 µM
